Measurements reported in PubChem BioAssay (NCI).
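Growth conditions: 96-well plates. Treatment: test compound, 48 hours, 5 concentrations. Analysis: linear interpolation between bracketing concentrations; unreached endpoints set to highest concentration. GI50 marks 50% less growth. TGI marks complete inhibition of growth.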

Legend:
Experiment in all cases: growth of human tumour cells (NCI), 48 h
A498 renal = test system: A498 renal
SK-OV-3 ovarian = test system: SK-OV-3 ovarian
NCI-H460 lung = test system: NCI-H460 lung
OVCAR-3 ovarian = test system: OVCAR-3 ovarian
OVCAR-5 ovarian = test system: OVCAR-5 ovarian
A549 NSCLC = test system: A549 NSCLC
UACC-62 melanoma = test system: UACC-62 melanoma
HL-60(TB) leukemia = test system: HL-60(TB) leukemia
T-47D breast = test system: T-47D breast
MDA-MB-435 = test system: MDA-MB-435

Row | Compound | TGI (A498 renal) [µM] | TGI (SK-OV-3 ovarian) [µM] | TGI (NCI-H460 lung) [µM] | TGI (OVCAR-3 ovarian) [µM] | TGI (OVCAR-5 ovarian) [µM] | TGI (A549 NSCLC) [µM] | TGI (UACC-62 melanoma) [µM] | TGI (HL-60(TB) leukemia) [µM] | TGI (T-47D breast) [µM] | TGI (MDA-MB-435) [µM] | GI50 (A498 renal) [µM] | GI50 (SK-OV-3 ovarian) [µM] | GI50 (T-47D breast) [µM] | GI50 (NCI-H460 lung) [µM] | GI50 (OVCAR-3 ovarian) [µM] | GI50 (OVCAR-5 ovarian) [µM] | GI50 (A549 NSCLC) [µM] | GI50 (UACC-62 melanoma) [µM] | GI50 (MDA-MB-435) [µM] | GI50 (HL-60(TB) leukemia) [µM]
1 | C=CCOC1=C2CC[C@H](O)[C@@]2(C)CCC1=O | > 100 | > 100 | > 100 | > 100 | > 100 | > 100 | > 100 | > 100 | – | – | – | – | – | – | – | – | – | – | – | –
2 | O=[n+]1cnn([O-])c2ccccc21 | > 100 | > 100 | – | – | > 100 | > 100 | 39.4 | – | 29.7 | > 100 | – | – | – | – | – | – | – | – | – | –
3 | CC1C(=O)CCC1C(Sc1ccccc1)(Sc1ccccc1)Sc1ccccc1 (centres undefined) | > 100 | > 100 | > 100 | > 100 | > 100 | > 100 | > 100 | 23.7 | – | – | – | – | – | – | – | – | – | – | – | –
4 | N#CC(NC12CC3CC(CC(C3)C1)C2)c1ccccc1 (centres undefined) | – | > 100 | > 100 | > 100 | > 100 | > 100 | > 100 | > 100 | > 100 | > 100 | – | – | – | – | – | – | – | – | – | –
5 | COC(=O)C1C2CC3C(OC(=O)C31)C2I (centres undefined) | > 100 | > 100 | > 100 | > 100 | > 100 | > 100 | > 100 | > 100 | – | – | – | – | – | – | – | – | – | – | – | –
6 | O=S1Cc2ccccc2CS1 (centres undefined) | > 100 | > 100 | 64.6 | 29 | 56.9 | > 100 | 28.9 | 40.9 | – | – | – | – | – | – | – | – | – | – | – | –
7 | O=C(Nc1cccc(-n2cc(-c3ccncc3)c(-c3cc(O)cc(Cl)c3)n2)c1)Nc1ccc(Cl)c(Cl)c1 | 9.06 | 9.43 | 6.14 | 5.05 | 6.16 | 7.54 | 3.76 | – | 6.17 | – | 2.09 | 3.4 | 2.39 | 2.18 | 1.96 | 2.14 | 1.96 | 1.69 | – | –
8 | S=C1CNC(=S)CN1 | > 100 | > 100 | > 100 | > 100 | > 100 | > 100 | > 100 | > 100 | – | – | – | – | – | – | – | – | – | – | – | –
9 | Cc1ccc(NC(=O)C2C(=O)C(=O)N(c3ccc(C)cc3)C2=O)cc1 (centres undefined) | > 100 | – | > 100 | – | > 100 | > 100 | > 100 | > 100 | – | – | – | – | – | – | – | – | – | – | – | –
10 | CC(/C=C/C=C/C=C/C=C/C=C/C(O)=C1/C(=O)C(CCC(=O)O)N(C)C1=O)=C\C(C)C(OC1CC(O)C(O)C(C)O1)C(C)C (centres undefined) | 10.7 | – | 10.1 | 5.12 | 7.83 | 10.5 | – | 6.07 | – | 7.93 | – | – | – | – | – | – | – | – | – | –
11 | c1ccc2c(c1)nnn1c3cnccc3nc21 | > 100 | > 100 | 37.4 | 55.8 | > 100 | > 100 | > 100 | 33 | – | – | – | – | – | – | – | – | – | – | – | –
12 | COC(=O)C(=C\Sc1ccccc1)/C=C/C(=O)OC(C)(C)C | – | 43.9 | 33.2 | 17 | 28.8 | 42 | 28.8 | 3.73 | – | – | – | – | – | – | – | – | – | – | – | –
13 | C[C@H]1O[C@@H](O[C@H]2[C@@H](O)C[C@H](O[C@H]3[C@@H](O)C[C@H](O[C@H]4CC[C@]5(C)C6C[C@@H](O)[C@]7(C)[C@@H](C8=CC(=O)OC8)CC[C@]7(O)C6CC[C@@H]5C4)O[C@@H]3C)O[C@@H]2C)C[C@H](O)[C@@H]1O (some centres undefined) | – | 0.164 | 0.0748 | 0.0792 | 0.286 | 0.0581 | 0.228 | 0.12 | 0.252 | 0.418 | – | 0.0821 | 0.0833 | 0.0197 | 0.0241 | 0.114 | 0.0163 | 0.103 | 0.135 | 0.034
14 | Oc1c(Cl)cc(C(c2cc(Cl)c(O)c(Cl)c2)C(c2cc(Cl)c(O)c(Cl)c2)c2cc(Cl)c(O)c(Cl)c2)cc1Cl | 26.3 | 23.4 | 18.7 | 11.9 | 24.8 | 36.4 | 12.5 | – | 12.5 | 19.2 | 10.1 | 11.3 | 1.74 | 2.59 | 3.12 | 12.3 | 3.73 | 3 | 5.64 | –
15 | COc1ccc(S(=O)(=O)Nc2cc(/C=C\c3cc(OC)c(OC)c(OC)c3)cc(OC)c2OC)cc1OC | 0.906 | > 100 | > 100 | > 100 | > 100 | > 100 | > 100 | > 100 | > 100 | – | 0.154 | 11.4 | 27.2 | 0.399 | 0.418 | 6.57 | 1.31 | 0.494 | – | 0.37
16 | CCC1(O)C(=O)OCc2c1cc1n(c2=O)Cc2c-1nc1ccccc1c2OC (centres undefined) | 0.319 | 7.47 | – | 5.85 | 27.4 | 1.85 | 0.413 | < 0.0341 | – | – | – | – | – | – | – | – | – | – | – | –
17 | O=C1OCC2=C1C(c1cccc([N+](=O)[O-])c1)c1cc3c(cc1N2CCO)CCC3 (centres undefined) | 0.376 | > 50 | 14.6 | 0.518 | > 50 | > 50 | > 24.8 | 0.373 | > 50 | – | 0.0684 | 0.226 | 0.355 | 0.172 | 0.0961 | 0.231 | 0.223 | 0.0298 | – | 0.137
18 | COC1OC(COCc2ccc(Cl)cc2)C(OCc2ccc(Cl)cc2)C1O (centres undefined) | – | 65.9 | 32 | 42.8 | 30 | 37.5 | 31.9 | 32.2 | – | – | – | – | – | – | – | – | – | – | – | –
19 | CCOC(=O)CC(=O)N(c1ccc(OC)cc1)C(C(=O)OC)c1ccccc1 (centres undefined) | – | – | > 100 | > 100 | > 100 | > 100 | > 100 | – | > 100 | > 100 | – | – | – | – | – | – | – | – | – | –
20 | CC12Oc3ccc4ccccc4c3C1c1c(ccc3ccccc13)O2 (centres undefined) | – | > 100 | > 100 | > 100 | > 100 | > 100 | > 100 | – | – | – | – | – | – | – | – | – | – | – | – | –
21 | Cn1c(O)c(C=N)c(=O)n(C)c1=O | – | – | > 100 | > 100 | > 100 | > 100 | – | > 100 | – | – | – | – | – | – | – | – | – | – | – | –
